Assay results: patent US10280149B2, “Therapeutic compounds and uses thereof” (GENENTECH, INC., priority 2015, dated 2019)

Biological target: Full length KDM2B (Homo sapiens (Human), UniProt Q8NHM5)
Assay: KDM2B TR-FRET assay for determining inhibitor IC50
Assay type: biochemical
Conditions: TR-FRET (HTRF), biotin-H3K36me2 peptide substrate, 2-OG 0.3 μM or 6 μM
Text: KDM2B TR-FRET Assay for Determining Inhibitor IC50
The KDM2B TR-FRET Assay described above represents an additional embodiment of the invention.

Chain of Full length KDM2B (Q8NHM5 whole entry): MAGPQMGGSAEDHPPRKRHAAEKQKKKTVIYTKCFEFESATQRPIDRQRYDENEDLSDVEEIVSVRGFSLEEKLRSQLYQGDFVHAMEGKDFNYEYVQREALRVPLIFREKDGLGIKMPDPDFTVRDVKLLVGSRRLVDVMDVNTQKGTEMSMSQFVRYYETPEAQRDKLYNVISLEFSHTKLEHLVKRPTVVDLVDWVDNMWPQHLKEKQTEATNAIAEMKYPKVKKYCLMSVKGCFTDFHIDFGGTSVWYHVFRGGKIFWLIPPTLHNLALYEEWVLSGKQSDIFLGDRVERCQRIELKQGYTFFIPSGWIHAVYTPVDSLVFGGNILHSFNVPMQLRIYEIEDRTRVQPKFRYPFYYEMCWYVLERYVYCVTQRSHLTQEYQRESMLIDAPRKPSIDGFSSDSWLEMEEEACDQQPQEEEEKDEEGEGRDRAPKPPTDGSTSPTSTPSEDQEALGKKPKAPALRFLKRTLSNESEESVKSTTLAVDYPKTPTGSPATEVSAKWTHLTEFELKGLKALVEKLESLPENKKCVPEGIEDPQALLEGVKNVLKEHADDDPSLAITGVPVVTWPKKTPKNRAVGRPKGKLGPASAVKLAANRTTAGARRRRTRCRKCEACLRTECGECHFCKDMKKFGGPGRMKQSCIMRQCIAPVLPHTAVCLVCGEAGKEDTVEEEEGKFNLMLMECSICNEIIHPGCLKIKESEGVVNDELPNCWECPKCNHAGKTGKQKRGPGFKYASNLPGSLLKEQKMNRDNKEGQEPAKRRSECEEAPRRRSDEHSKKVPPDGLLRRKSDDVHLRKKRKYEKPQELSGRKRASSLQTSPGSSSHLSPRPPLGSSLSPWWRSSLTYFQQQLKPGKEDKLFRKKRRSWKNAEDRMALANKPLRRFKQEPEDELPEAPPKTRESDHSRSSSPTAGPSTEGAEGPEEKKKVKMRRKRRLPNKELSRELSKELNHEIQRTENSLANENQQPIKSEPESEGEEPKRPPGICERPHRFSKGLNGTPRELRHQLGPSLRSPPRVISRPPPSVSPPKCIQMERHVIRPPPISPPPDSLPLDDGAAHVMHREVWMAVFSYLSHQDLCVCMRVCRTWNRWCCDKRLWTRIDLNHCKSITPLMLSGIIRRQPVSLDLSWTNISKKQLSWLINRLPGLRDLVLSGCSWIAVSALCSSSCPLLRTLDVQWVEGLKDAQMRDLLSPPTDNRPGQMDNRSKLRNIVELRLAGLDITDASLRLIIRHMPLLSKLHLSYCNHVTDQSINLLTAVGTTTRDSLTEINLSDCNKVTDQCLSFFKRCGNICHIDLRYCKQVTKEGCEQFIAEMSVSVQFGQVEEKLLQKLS

Structure (SMILES)	IC50 [nM]
COc1ccc(C(=O)[C@H]2CCCN(C3CCC3)C2)c(OC)c1 [Example 11, [(3S)-1-cyclobutyl-3-piperidyl]-(2,4-dimethoxyphenyl)methanone]	153
COc1ccc2cc(C(=O)C3CCCN(C4CCCC4)C3)ccc2c1C (stereo not shown) [Example 51, (1-cyclopentyl-3-piperidyl)-(6-methoxy-5-methyl-2-naphthyl)methanone]	118
C[C@H]1CCN(CC2CC2)C[C@@H]1C(=O)c1ccc2cc(C#N)ccc2c1 (stereo in doubt) [Example 160a, 6-(1-(cyclopropylmethyl)-4-methylpiperidine-3-carbonyl)-2-naphthonitrile]	1700
O=C(c1cccc(Oc2ccc(F)cc2)c1)C1CCCN(CC2CC2)C1 (stereo not shown) [Example 27, [1-(cyclopropylmethyl)-3-piperidyl]-[3-(4-fluorophenoxy)phenyl]methanone]	221
COc1cccc(C(=O)[C@@H]2CCCN(CC3CC3)C2)c1 (stereo in doubt) [Example 109a, (1-(cyclopropylmethyl)piperidin-3-yl)(3-methoxyphenyl)methanone]	14100
Cc1ccc(-c2ccc(C(=O)C3CCCN(CC4CC4)C3)cc2)cc1 (stereo not shown) [Example 34, [1-(cyclopropylmethyl)-3-piperidyl]-[4-(p-tolyl)phenyl]methanone]	402
O=C(c1ccc(-c2ccccn2)cc1)C1CCCN(CC2CC2)C1 (stereo not shown) [Example 38, [1-(cyclopropylmethyl)-3-piperidyl]-[4-(2-pyridyl)phenyl]methanone]	596
CCCN1CCCC(C(=O)c2ccc(C(F)(F)F)cc2)C1 (stereo not shown) [Example 100, (1-propyl-3-piperidyl)-[4-(trifluoromethyl)phenyl]methanone]	1200
O=C(Nc1ccc2cc(C(=O)C3CCCN(CC4CC4)C3)ccc2c1)C1CC1 (stereo not shown) [Example 175]	355
O=C(c1ccc2c(c1)CCCC2)C1CCCN(C2CCC2)C1 (stereo not shown) [Example 133, (1-cyclobutyl-3-piperidyl)-tetralin-6-yl-methanone]	103
COc1ccc2cc(C(=O)C3CN(C4CCC4)CCN3Cc3ccccc3)ccc2c1 (stereo not shown) [Example 191, (1-benzyl-4-cyclobutyl-piperazin-2-yl)-(6-methoxy-2-naphthyl)methanone]	102
CCCN1CCCC(C(=O)c2ccccc2-c2ccccc2)C1 (stereo not shown) [Example 102, (2-phenylphenyl)-(1-propyl-3-piperidyl)methanone]	5800
COc1ccc2cc(C(=O)C3CCCN(C(C)C)C3)ccc2c1 (stereo not shown) [Example 81, (1-isopropyl-3-piperidyl)-(6-methoxy-2-naphthyl)methanone]	6500
C[C@@H]1CCN(C2CCC2)C[C@H]1C(=O)c1ccc2cc(C#N)ccc2c1 (stereo in doubt) [Example 161b, 6-(1-cyclobutyl-4-methylpiperidine-3-carbonyl)-2-naphthonitrile]	12.3
COc1ccc2cc(C(=O)[C@@H]3CCCN(C4CCCC4)C3)ccc2c1 [Example 9, [(3R)-1-cyclopentyl-3-piperidyl]-(6-methoxy-2-naphthyl)methanone]	3000
CCCN1CCCC(C(=O)c2cc(C(C)O)c3ccccc3c2)C1 (stereo not shown) [Example 68, [4-(1-hydroxyethyl)-2-naphthyl]-(1-propyl-3-piperidyl)methanone]	76.2
COc1ccc2cc(C(=O)C3CCCN(C4CCOC4)C3)ccc2c1 (stereo not shown) [Example 15, (6-methoxy-2-naphthyl)-(1-tetrahydrofuran-3-yl-3-piperidyl)methanone]	430
CC1CCN(CC2CC2)CC1C(=O)c1ccc2c(O)cccc2c1 (single isomer, unassigned) [Example 151a, (1-(cyclopropylmethyl)-4-methylpiperidin-3-yl)(5-hydroxynaphthalen-2-yl)methanone]	315
CCCN1CCCC(C(=O)c2ccc(OC(F)(F)F)cc2)C1 (stereo not shown) [Example 103, (1-propyl-3-piperidyl)-[4-(trifluoromethoxy)phenyl]methanone]	2000
N#Cc1cc(C(=O)C2CCCN(C3CCCC3)C2)cc2ccccc12 (stereo not shown) [Example 45, 3-(1-cyclopentylpiperidine-3-carbonyl)naphthalene-1-carbonitrile]	267
O=C(c1ccc2c(Oc3ccccc3)cccc2c1)C1CCCN(CC2CC2)C1 (stereo not shown) [Example 112, (1-(cyclopropylmethyl)piperidin-3-yl)(5-phenoxynaphthalen-2-yl)methanone]	175
CC1CCN(CC2CC2)CC1C(=O)c1ccc2c(O)cccc2c1 (single isomer, unassigned) [Example 151b, (1-(cyclopropylmethyl)-4-methylpiperidin-3-yl)(5-hydroxynaphthalen-2-yl)methanone]	39.5
CCC[C@@H]1CCN(C2CCC2)C[C@@H]1C(=O)c1ccc2c(CC#N)c(OC)ccc2c1 (stereo in doubt) [Example 184a, 2-(6-(1-cyclobutyl-4-propylpiperidine-3-carbonyl)-2-methoxynaphthalen-1-yl)acetonitrile]	77.4

Structure (SMILES)	IC50 [nM]
NC(=O)c1cc(C(=O)C2CCCN(C3CCCC3)C2)cc2ccccc12 (stereo not shown) [Example 46, 3-(1-cyclopentylpiperidine-3-carbonyl)naphthalene-1-carboxamide]	209
COc1ccc2cc(C(=O)C3CN(C4CCC4)CCN3Cc3ccc4ccccc4c3)ccc2c1 (stereo not shown) [Example 197, [4-cyclobutyl-1-(2-naphthylmethyl)piperazin-2-yl]-(6-methoxy-2-naphthyl)methanone]	165
O=C(c1cccc(Cl)c1)C1CCCN(C2CCCC2)C1 (stereo not shown) [Example 3, (3-chlorophenyl)-(1-cyclopentyl-3-piperidyl)methanone]	23000
CN(C)C(=O)c1ccc2cc(C(=O)C3CCCN(C4CCC4)C3)ccc2c1 (stereo not shown) [Example 177, 6-(1-cyclobutylpiperidine-3-carbonyl)-N,N-dimethyl-2-naphthamide]	113
COc1ccc2cc(C(=O)[C@H]3CCCN(C4CCC4)C3)ccc2c1CC#N (stereo in doubt) [Example 179a, 2-(6-(1-cyclobutylpiperidine-3-carbonyl)-2-methoxynaphthalen-1-yl)acetonitrile]	5.65
CCN1CCCC(C(=O)c2ccc3cc(OC)ccc3c2)C1 (stereo not shown) [Example 74, (1-ethyl-3-piperidyl)-(6-methoxy-2-naphthyl)methanone]	1150
COc1ccc2cc(C(=O)C3CN(CC4CC4)CCC3OC)ccc2c1 (single isomer, unassigned) [Example 146a, (1-(cyclopropylmethyl)-4-methoxypiperidin-3-yl)(6-methoxynaphthalen-2-yl)methanone]	382
COc1cccc2cc(C(=O)C3CN(CC4CC4)CCC3C)ccc12 (single isomer, unassigned) [Example 136a, (1-(cyclopropylmethyl)-4-methylpiperidin-3-yl)(5-methoxynaphthalen-2-yl)methanone]	41.4
CCCN1CCCC(C(=O)c2cccc(OC)c2)C1 (stereo not shown) [Example 98, (3-methoxyphenyl)-(1-propyl-3-piperidyl)methanone]	1600
COc1ccc2cc(C(=O)C3CN(C4CCC4)CCN3Cc3ccc(C)cc3)ccc2c1 (stereo not shown) [Example 196, [4-cyclobutyl-1-(p-tolylmethyl)piperazin-2-yl]-(6-methoxy-2-naphthyl)methanone]	138
COc1ccc(C(=O)C2CCCN(C3CCC3)C2)c(OC)c1 (stereo not shown) [Example 5, (1-cyclobutyl-3-piperidyl)-(2,4-dimethoxyphenyl)methanone]	2500
N#Cc1cc(C(=O)C2CCCN(C3CCC3)C2)cc2ccccc12 (stereo not shown) [Example 44, 3-(1-cyclobutylpiperidine-3-carbonyl)naphthalene-1-carbonitrile]	101
COc1ccc2cc(C(=O)C3CCCN(CC4CC4)C3)ccc2n1 (stereo not shown) [Example 122, (1-(cyclopropylmethyl)piperidin-3-yl)(2-methoxyquinolin-6-yl)methanone]	205
COc1ccc2cc(C(=O)C3CCCN(C4CC(F)(F)C4)C3)ccc2c1 (stereo not shown) [Example 66, [1-(3,3-difluorocyclobutyl)-3-piperidyl]-(6-methoxy-2-naphthyl)methanone]	67.5
CC(O)c1cc(C(=O)C2CCCN(CC3CC3)C2)cc2ccccc12 (stereo not shown) [Example 67, [1-(cyclopropylmethyl)-3-piperidyl]-[4-(1-hydroxyethyl)-2-naphthyl]methanone]	148
COc1cccc2cc(C(=O)C3CCCN(CC4CC4)C3)ccc12 (stereo not shown) [Example 114, (1-(cyclopropylmethyl)piperidin-3-yl)(5-methoxynaphthalen-2-yl)methanone]	220
C[C@@H]1CCN(CC2CC2)C[C@H]1C(=O)c1ccc2cc(C#N)ccc2c1 (stereo in doubt) [Example 160b, 6-(1-(cyclopropylmethyl)-4-methylpiperidine-3-carbonyl)-2-naphthonitrile]	113
CCCN1CCCC(C(=O)c2ccc(Cl)cc2)C1 (stereo not shown) [Example 91, (4-chlorophenyl)-(1-propyl-3-piperidyl)methanone]	1600
CCCN1CCCC(C(=O)c2ccccc2OC)C1 (stereo not shown) [Example 99, (2-methoxyphenyl)-(1-propyl-3-piperidyl)methanone]	5500
O=C(c1ccc2cc(CO)ccc2c1)C1CCCN(C2CCC2)C1 (stereo not shown) [Example 153, (1-cyclobutylpiperidin-3-yl)(6-(hydroxymethyl)naphthalen-2-yl)methanone]	409
CCCN1CCCC(C(=O)c2cc(OC)cc(OC)c2)C1 (stereo not shown) [Example 105, (3,5-dimethoxyphenyl)-(1-propyl-3-piperidyl)methanone]	272
Cc1cccc2ccc(C(=O)C3CCCN(C4CCCC4)C3)cc12 (stereo not shown) [Example 61, (1-cyclopentyl-3-piperidyl)-(8-methyl-2-naphthyl)methanone]	174
CCC[C@H]1CCN(C2CCC2)C[C@@H]1C(=O)c1ccc2c(CC#N)c(OC)ccc2c1 (stereo in doubt) [Example 184d, 2-(6-(1-cyclobutyl-4-propylpiperidine-3-carbonyl)-2-methoxynaphthalen-1-yl)acetonitrile]	263
